# Biological target: T1, KRAS G12C 1-169, his-tagged protein, GDP-loaded (Homo sapiens, UniProt P01116, G12C)
# T1 construct: KRAS G12C 1-169, his-tagged protein, GDP-loaded was diluted to 2 μm in buffer
# Assay: Biochemical assay: covalent binding to KRAS G12C analyzed by mass spectrometry
# Conditions: protein diluted to 2 μm, room temperature for 24 hrs, method lists 100, 30 and 10 μM final compound concentration, not stated which applies
# Procedure: Test compounds were prepared as 10 mM stock solutions in DMSO (Fisher cat# BP-231-100). KRAS G12C 1-169, his-tagged protein, GDP-loaded was diluted to 2 μm in buffer (20 mM Hepes, 150 mM NaCl, 1 mM MgCl2). Compounds were tested for activity as follows:
# Compounds were diluted to 50× final test concentration in DMSO in 96-well storage plates. Compound stock solutions were vortexed before use and observed carefully for any sign of precipitation. Dilutions were as follow: • For 100 μM final compound concentration, compounds were diluted to 5000 μM (5 μl 10 mM compound stock +5 μl DMSO and mixed well by pipetting. • For 30 μM final compound concentration, compounds were diluted to 1500 μM (3 μl 10 mM compound stock +17 μl DMSO) and mixed well by pipetting. • For 10 μM final compound concentration, compounds were diluted to 500 μM (2 μl 10 mM compound stock +38 μl DMSO) and mixed well by pipetting. 49 μl of the stock protein solution was added to each well of a 96-well PCR plate (Fisher cat#1423027). 1 μl of the diluted 50× compounds were added to appropriate wells in the PCR plate using 12-channel pipettor. Reactions were mixed carefully and thoroughly by pipetting up/down with a 200 μl multi-channel pipettor. The plate was sealed well with aluminum plate seal, and stored in drawer at room temperature for 24 hrs. 5 μl of 2% formic acid (Fisher cat# A117) in DI H2O was then added to each well followed by mixing with a pipette. The plate was then resealed with aluminum seal and stored on dry ice until analyzed as described below.
# The above described assays were analyzed by mass spectrometry according to the following procedure:
# The MS instrument is set to positive polarity, 2 GHz resolution, and low mass (1700) mode and allowed to equilibrate for 30 minutes. The instrument is then calibrated, switched to acquisition mode and the appropriate method loaded.
# After another 30 minute equilibration time, a blank batch (i.e., buffer) is run to ensure equipment is operating properly. The samples are thawed at 37° C. for 10 minutes, briefly centrifuged, and transfer to the bench top. Wells A1 and H12 are spiked with 1 uL 500 uM internal standard peptide, and the plates centrifuged at 2000×g for 5 minutes. The method is then run and masses of each individual well recorded.
# The masses (for which integration data is desired) for each well are pasted into the platemap and exported from the analysis. Masses for the internal standards are exported as well. The data at 50 ppm is extracted for the +19 charge state, and identity of well A1 is assigned using the internal standard spike and integrated. Peak data is exported as a TOF list and the above steps are repeated individually, for the +20, 21, 22, 23, 24, and 25 charge states.
row,Compound,Binding %
1,C=CS(=O)(=O)NC[C@H]1C[C@@H]2O[C@H](CO)[C@@H](OCc3ccccc3)[C@@H]2O1 [Compound I-7],++ (++ indicates binding activity from greater than 5% to 10%)
2,C=Cc1cccc(S(=O)(=O)NC[C@@H]2C[C@@H]3O[C@H](COCc4ccccc4)[C@@H](OCc4ccccc4)[C@@H]3O2)c1 [Compound I-13],++++ (++++ indicates binding activity from greater than 15%)
3,C=CC(=O)NC[C@@H]1C[C@@H]2O[C@H](CO)[C@@H](OCc3ccccc3)[C@@H]2O1 [Compound I-2],+ (+ indicates binding activity from 0.5% to 5%)
4,C=CS(=O)(=O)NCCOc1cccc2ccccc12 [II-2],+++ (+++ indicates binding activity from greater than 10% to 15%)
5,C=CS(=O)(=O)NCCNc1cccc2ccccc12 [II-3],+++ (+++ indicates binding activity from greater than 10% to 15%)
6,C=CS(=O)(=O)NCCNc1ccc2ccccc2c1 [II-4],++ (++ indicates binding activity from greater than 5% to 10%)
7,C=CC(=O)NC[C@H]1C[C@@H]2O[C@H](COCc3ccccc3)[C@@H](OCc3ccccc3)[C@@H]2O1 [Compound I-3],+ (+ indicates binding activity from 0.5% to 5%)
8,C=Cc1ccc(S(=O)(=O)NCCOc2ccc3ccccc3c2)cc1 [II-6],+++ (+++ indicates binding activity from greater than 10% to 15%)
9,C=Cc1ccc(S(=O)(=O)NC[C@H]2C[C@@H]3O[C@H](COCc4ccccc4)[C@@H](OCc4ccccc4)[C@@H]3O2)cc1 [Compound I-10],++++ (++++ indicates binding activity from greater than 15%)
10,C=Cc1ccccc1S(=O)(=O)NC[C@H]1C[C@@H]2O[C@H](COCc3ccccc3)[C@@H](OCc3ccccc3)[C@@H]2O1 [Compound I-12],+++ (+++ indicates binding activity from greater than 10% to 15%)
11,C=Cc1ccccc1S(=O)(=O)NCCNc1ccc2ccccc2c1 [II-13],+++ (+++ indicates binding activity from greater than 10% to 15%)
12,C=CC(=O)NC[C@@H]1C[C@@H]2O[C@H](COCc3ccccc3)[C@@H](OCc3ccccc3)[C@@H]2O1 [Compound I-4],+ (+ indicates binding activity from 0.5% to 5%)
13,C=Cc1cccc(S(=O)(=O)NC[C@@H]2C[C@@H]3O[C@H](CO)[C@@H](OCc4ccccc4)[C@@H]3O2)c1 [Compound I-20],+++ (+++ indicates binding activity from greater than 10% to 15%)
14,C=Cc1cccc(S(=O)(=O)NCCOc2ccc3ccccc3c2)c1 [II-8],+++ (+++ indicates binding activity from greater than 10% to 15%)
15,C=Cc1ccc(S(=O)(=O)NC[C@H]2C[C@@H]3O[C@H](CO)[C@@H](OCc4ccccc4)[C@@H]3O2)cc1 [Compound I-19],++ (++ indicates binding activity from greater than 5% to 10%)
16,C=Cc1ccc(S(=O)(=O)NC[C@@H]2C[C@@H]3O[C@H](COCc4ccccc4)[C@@H](OCc4ccccc4)[C@@H]3O2)cc1 [Compound I-14],+++ (+++ indicates binding activity from greater than 10% to 15%)

row,Compound,Binding %
1,C=Cc1cccc(S(=O)(=O)NCCOc2cccc3ccccc23)c1 [II-7],++ (++ indicates binding activity from greater than 5% to 10%)
2,C=Cc1cccc(S(=O)(=O)NC[C@H]2C[C@@H]3O[C@H](COCc4ccccc4)[C@@H](OCc4ccccc4)[C@@H]3O2)c1 [Compound I-11],++ (++ indicates binding activity from greater than 5% to 10%)
3,C=Cc1ccccc1S(=O)(=O)NCCOc1cccc2ccccc12 [II-12],+++ (+++ indicates binding activity from greater than 10% to 15%)
4,C=CS(=O)(=O)NCCOc1ccc2ccccc2c1 [II-1],+++ (+++ indicates binding activity from greater than 10% to 15%)
5,C=Cc1cccc(S(=O)(=O)NC[C@H]2C[C@@H]3O[C@H](CO)[C@@H](OCc4ccccc4)[C@@H]3O2)c1 [Compound I-16],++ (++ indicates binding activity from greater than 5% to 10%)
6,C=Cc1ccc(S(=O)(=O)NCCNc2cccc3ccccc23)cc1 [II-10],+++ (+++ indicates binding activity from greater than 10% to 15%)
7,C=Cc1ccccc1S(=O)(=O)NCCOc1ccc2ccccc2c1 [II-9],++ (++ indicates binding activity from greater than 5% to 10%)
8,C=Cc1ccccc1S(=O)(=O)NC[C@@H]1C[C@@H]2O[C@H](COCc3ccccc3)[C@@H](OCc3ccccc3)[C@@H]2O1 [Compound I-15],+++ (+++ indicates binding activity from greater than 10% to 15%)
9,C=Cc1ccc(S(=O)(=O)NCCNc2ccc3ccccc3c2)cc1 [II-5],++ (++ indicates binding activity from greater than 5% to 10%)
10,C=CS(=O)(=O)NC[C@@H]1C[C@@H]2O[C@H](COCc3ccccc3)[C@@H](OCc3ccccc3)[C@@H]2O1 [Compound I-5],+++ (+++ indicates binding activity from greater than 10% to 15%)
11,C=CC(=O)NCC1C[C@@H]2O[C@H](CO)[C@@H](OCc3ccccc3)[C@@H]2O1 (some centres unmarked) [Compound I-1],+ (+ indicates binding activity from 0.5% to 5%)
12,C=Cc1ccccc1S(=O)(=O)NCCNc1cccc2ccccc12 [II-11],++++ (++++ indicates binding activity from greater than 15%)
13,C=CS(=O)(=O)NC[C@H]1C[C@@H]2O[C@H](COCc3ccccc3)[C@@H](OCc3ccccc3)[C@@H]2O1 [Compound I-6],+++ (+++ indicates binding activity from greater than 10% to 15%)
14,C=Cc1ccc(S(=O)(=O)NC[C@H]2C[C@@H]3O[C@H](CO)[C@@H](OCc4ccccc4)[C@@H]3O2)cc1 [Compound I-9],+++ (+++ indicates binding activity from greater than 10% to 15%)
15,C=Cc1ccccc1S(=O)(=O)NC[C@H]1C[C@@H]2O[C@H](CO)[C@@H](OCc3ccccc3)[C@@H]2O1 [Compound I-18],+++ (+++ indicates binding activity from greater than 10% to 15%)
16,C=Cc1ccccc1S(=O)(=O)NC[C@@H]1C[C@@H]2O[C@H](CO)[C@@H](OCc3ccccc3)[C@@H]2O1 [Compound I-17],++++ (++++ indicates binding activity from greater than 15%)

# Source: patent US9745319B2, “Irreversible covalent inhibitors of the GTPase K-Ras G12C” (Araxes Pharma LLC, priority 2013, dated 2017)
